Reference: patent US20100216981A1 (Nippon Soda Co., Ltd., priority 2007, published 2010)

T1: tat synthetic peptide (arginine-rich portion) (Human immunodeficiency virus, UniProt P69698 SEQ:1-34)
T1 chain: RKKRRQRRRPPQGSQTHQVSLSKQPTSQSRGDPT

T2: 2b (PTGS suppressor) (Tomato aspermy virus, UniProt Q8UYT3 Q8UYT3:1-95)
T2 sequence: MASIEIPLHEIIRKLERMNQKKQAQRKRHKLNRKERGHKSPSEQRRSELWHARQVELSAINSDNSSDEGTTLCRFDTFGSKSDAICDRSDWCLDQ

T3: p19 (PTGS suppressor) (Tomato bushy stunt virus, UniProt P11690 P11690:1-172)
T3 sequence: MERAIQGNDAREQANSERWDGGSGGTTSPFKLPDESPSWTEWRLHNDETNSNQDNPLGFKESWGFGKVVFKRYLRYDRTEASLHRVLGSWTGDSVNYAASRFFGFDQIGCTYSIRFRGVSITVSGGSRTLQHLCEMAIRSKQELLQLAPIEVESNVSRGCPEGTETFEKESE

B1: biotinylated siRNA 21 bp (dsRNA)
RNA 1: UUGCUCAACAGUAUGGGCAUU
RNA 2: UGCCCAUACUGUUGAGCAAUU

Columns and labels:
[1] = target: synthetic peptide of tat (HIV tat) (Human immunodeficiency virus type 1 group M subtype B, UniProt P04610, P77S); test: Gel shift assay, inhibition of siRNA binding to synthetic peptide of tat; conditions: compound 100 ppm; synthetic peptide of tat 500 nM
PTGS-SP p19 of TBSV = PTGS-SP p19 of TBSV (Tomato bushy stunt virus, UniProt P11690); test: Surface plasmon resonance (Biacore) inhibition of siRNA binding to p19; conditions: read-out: Binding inhibition rate (%) Biacore p19 25 ppm
TAV-2b = TAV-2b (Tomato aspermy virus, UniProt Q8UYT3); test: Surface plasmon resonance (Biacore) inhibition of siRNA binding to TAV-2b; conditions: read-out: Binding inhibition rate (%) Biacore TAV2b 25 ppm
[2] = target: T1, tat synthetic peptide (arginine-rich …); test: EMSA; peptide 500 nM, siRNA 500 uM as printed, 0.005% BSA, 25 C; binding inhibited by small molecules; conditions: protein: synthetic; tags: chemically synthesised peptide, Biologica Co., 98% purity; label: 3'-biotin on sense strand; siRNA duplex of two 21-mers
2b (PTGS suppressor) = target: T2, 2b (PTGS suppressor); test: SPR; siRNA on SA chip; 10 mM HEPES pH 7.4, 150 mM NaCl, 3 mM EDTA; 2b about 10 ug/ml; free siRNA 0.1 uM competes (positive control); small molecules inhibit binding; conditions: tags: FLAG (MBP removed with Factor Xa); label: 3'-biotin on sense strand; siRNA duplex of two 21-mers
p19 (PTGS suppressor) = target: T3, p19 (PTGS suppressor); test: SPR; siRNA on SA chip; 10 mM HEPES pH 7.4, 150 mM NaCl, 3 mM EDTA; p19 about 10 ug/ml; free siRNA 0.1 uM competes (positive control); small molecules inhibit binding; conditions: tags: His-tag (pCold I), FLAG; chain copies: 2; label: 3'-biotin on sense strand; siRNA duplex of two 21-mers

Row | Molecule | Binding inhibition rate (%) Gel shift tat 100 ppm [1] [%] | inhibition at 25 ppm (PTGS-SP p19 of TBSV) [%] | inhibition at 25 ppm (TAV-2b) [%] | binding result [2] | binding result (2b (PTGS suppressor)) | binding result (p19 (PTGS suppressor))
1 | NC1=CC(=O)CCC1 [Compound 18] | 0 | 90 | 80 | – | – | –
2 | O=C1CCc2ccccc2C1=O [Compound 6] | 100 | 100 | 100 | – | – | –
3 | COc1c(OC)c(=O)c1=O [Compound 1] | 10 | 80 | 80 | – | – | –
4 | O=C1C=C(Cl)C(=O)C=C1Cl [Compound 14] | 100 | – | – | – | – | –
5 | CCOC(=O)C1CCCC1=O (centres unmarked) [Compound 3] | – | 0 | 90 | – | – | –
6 | Cc1occc(=O)c1O [Compound 19] | 0 | 90 | 50 | – | – | –
7 | O=c1c(O)c(O)c(=O)c(=O)c1=O [Compound 17] | – | 100 | 90 | – | – | –
8 | CC1(C)C(=O)C(C)(C)C1=O [Compound 2] | – | 75 | 0 | – | – | –
9 | O=C1CCC(=O)CC1 [Compound 11] | – | 70 | 20 | – | – | –
10 | COC1=C(OC)C(=O)C(C)=CC1=O [Compound 16] | 0 | 80 | 0 | – | – | –
11 | O=C1C=CC(=O)c2c(O)ccc(O)c21 [Compound 20] | 100 | 100 | 80 | – | – | –
12 | O=C1C=CC(=O)C1 [Compound 5] | 100 | 100 | 100 | – | – | –
13 | O=C1C=C(O)C(=O)C=C1O [Compound 15] | 80 | 95 | 100 | – | – | –
14 | O=C1CCSC1 [Compound 9] | 0 | 95 | 0 | – | – | –
15 | O=C1C=CC(=O)C=C1 [Compound 12] | 100 | 100 | 95 | – | – | –
16 | O=C1CCCCC1 [Compound 10] | – | 70 | 50 | – | – | –
17 | O=C1C=C(Cl)C(=O)C(Cl)=C1 [Compound 13] | 100 | – | – | – | – | –
18 | CC(=O)C1CCCC1=O (centres unmarked) [Compound 4] | – | 20 | 90 | – | – | –
19 | B1 | – | – | – | binds | binds | binds
